Laboratory results reported in patent US10053428B2, “5-aminotetrahydroquinoline-2-carboxylic acids and their use” (BAYER PHARMA AKTIENGESELLSCHAFT, priority 2012, dated 2018).
Blank lines part the entries; values can stand above or below the compound they belong to.

Key:
[1] = system: saphenous artery rings; assay: Vasorelaxant effect in vitro (phenylephrine-contracted saphenous artery rings); set-up: species or system Rabbits; settings: rabbit saphenous artery rings; read-out: IC50 (concentration reducing phenylephrine-induced contraction by 50%)
Description: B-3. Vasorelaxant Effect In Vitro
Rabbits are anaesthetized and sacrificed by intravenous injection of thiopental sodium (about 50 mg/kg) and exsanguinated. The saphenous artery is removed and divided into rings 3 mm wide. The rings are mounted singly on in each case a pair of triangular hooks open at the end and made of 0.3 mm-thick special wire (Remanium®). Each ring is placed under an initial tension in 5 ml organ baths with Krebs-Henseleit solution which is at 37° C., is gassed with carbogen and has the following composition: NaCl 119 mM; KCl 4.8 mM; CaCl2×2 H2O 1 mM; MgSO4×7H2O 1.4 mM; KH2PO4 1.2 mM; NaHCO3 25 mM; glucose 10 mM; bovine serum albumin 0.001%. The force of contraction is detected with Statham UC2 cells, amplified and digitized via A/D converters (DAS-1802 HC, Keithley Instruments, Munich) and recorded in parallel on chart recorders. Contractions are induced by addition of phenylephrine.
After several (generally 4) control cycles, the substance to be investigated is added in each further run in increasing dosage, and the level of the contraction achieved under the influence of the test substance is compared with the level of the contraction reached in the last preceding run. The concentration necessary to reduce the contraction reached in the preceding control by 50% is calculated from this (IC50). The standard application volume is 5 μl. The proportion of DMSO in the bath solution corresponds to 0.1%.

[2] = system: recombinant guanylate cyclase reporter cell line; assay: sGC-activating activity in the CHO reporter cell in vitro; assay type: cell-based; settings: read-out: MEC (minimum effective concentration)
Description: B-2. Action at a Recombinant Guanylate Cyclase Reporter Cell Line
The cellular action of the compounds according to the invention is determined at a recombinant guanylate cyclase reporter cell line, as described in F. Wunder et al., Anal. Biochem. 32, 104-112 (2005).

[3] = target: T1, haem-containing recombinant soluble guanylate cyclase (sGC) (Rattus norvegicus, UniProt P20595); assay: Stimulation of recombinant soluble guanylate cyclase (sGC) in vitro, haem-containing enzyme; assay type: biochemical
T1 construct: made in house; host or cells: Sf9 insect cells (baculovirus)
T1 sequence (P20595 1-619): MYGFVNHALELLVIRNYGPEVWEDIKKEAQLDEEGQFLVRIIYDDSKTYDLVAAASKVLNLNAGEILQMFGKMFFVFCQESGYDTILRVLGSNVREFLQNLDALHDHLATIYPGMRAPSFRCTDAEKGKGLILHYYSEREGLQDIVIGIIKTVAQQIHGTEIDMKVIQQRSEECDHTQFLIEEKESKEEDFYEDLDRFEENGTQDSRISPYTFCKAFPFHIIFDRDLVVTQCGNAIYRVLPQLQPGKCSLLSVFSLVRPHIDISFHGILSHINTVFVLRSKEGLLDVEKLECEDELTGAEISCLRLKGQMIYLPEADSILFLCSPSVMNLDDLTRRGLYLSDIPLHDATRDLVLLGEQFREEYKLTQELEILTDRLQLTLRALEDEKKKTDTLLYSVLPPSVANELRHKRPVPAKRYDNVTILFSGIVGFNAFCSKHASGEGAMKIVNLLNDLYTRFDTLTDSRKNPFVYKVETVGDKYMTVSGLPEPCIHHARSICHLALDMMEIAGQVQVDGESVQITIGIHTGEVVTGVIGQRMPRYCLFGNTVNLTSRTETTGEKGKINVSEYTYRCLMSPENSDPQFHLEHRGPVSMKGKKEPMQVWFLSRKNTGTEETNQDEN
T1 sequence (P19686 1-690 partner): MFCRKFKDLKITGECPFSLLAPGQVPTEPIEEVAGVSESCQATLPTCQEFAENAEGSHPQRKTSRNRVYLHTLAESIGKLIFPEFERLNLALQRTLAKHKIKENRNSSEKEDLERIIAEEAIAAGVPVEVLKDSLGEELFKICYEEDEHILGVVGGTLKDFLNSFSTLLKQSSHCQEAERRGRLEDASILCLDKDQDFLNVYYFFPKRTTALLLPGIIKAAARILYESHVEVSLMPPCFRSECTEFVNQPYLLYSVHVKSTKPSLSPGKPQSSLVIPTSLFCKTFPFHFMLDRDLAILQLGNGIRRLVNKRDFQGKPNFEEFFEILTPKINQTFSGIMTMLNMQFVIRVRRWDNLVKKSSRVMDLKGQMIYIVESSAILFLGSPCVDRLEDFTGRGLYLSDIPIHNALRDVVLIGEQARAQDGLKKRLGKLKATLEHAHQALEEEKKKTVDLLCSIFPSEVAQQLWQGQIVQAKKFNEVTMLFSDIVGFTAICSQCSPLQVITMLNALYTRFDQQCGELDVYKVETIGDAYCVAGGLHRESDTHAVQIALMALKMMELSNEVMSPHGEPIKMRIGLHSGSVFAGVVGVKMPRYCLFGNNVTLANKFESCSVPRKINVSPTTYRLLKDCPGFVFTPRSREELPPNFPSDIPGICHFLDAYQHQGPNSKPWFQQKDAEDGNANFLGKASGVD
Description: (§1) B-1. Stimulation of Recombinant Soluble Guanylate Cyclase (sGC) In Vitro
(§2) Investigations on the stimulation of recombinant soluble guanylate cyclase (sGC) by the compounds according to the invention with and without sodium nitroprusside, and with and without the haem-dependent sGC inhibitor 1H-1,2,4-oxadiazolo[4,3a]quinoxalin-1-one (ODQ), are carried out by the method described in detail in the following reference: M. Hoenicka, E. M. Becker, H. Apeler, T. Sirichoke, H. Schroeder, R. Gerzer and J.-P. Stasch, “Purified soluble guanylyl cyclase expressed in a baculovirus/Sf9 system: Stimulation by YC-1, nitric oxide, and carbon oxide”, J. Mol. Med 77 (1999), 14-23. The haem-free guanylate cyclase is obtained by adding Tween 20 to the sample buffer (0.5% in the final concentration).
The activation of sGC by a test substance is reported as x-fold stimulation of the basal activity. The result for Example 2 is shown in Table 1A, that for Example 23 in Table 1B and that for Example 39 in Table 1C:
[DEA/NO=2-(N,N-diethylamino)diazenolate 2-oxide; ODQ=1H-1,2,4-oxadiazolo-[4,3a]quinoxalin-1-one].

[4] = target: T2, haem-free recombinant soluble guanylate cyclase (sGC) (Rattus norvegicus, UniProt P20595); assay: Stimulation of recombinant soluble guanylate cyclase (sGC) in vitro, haem-free enzyme; assay type: biochemical
T2 construct: made in house; host or cells: Sf9 insect cells (baculovirus)
T2 sequence (P20595 1-619): T1 sequence (P20595 1-619)
T2 sequence (P19686 1-690 partner): T1 sequence (P19686 1-690 partner)
Description: as §1, §2
The activation of sGC by a test substance is reported as x-fold stimulation of the basal activity. The result for Example 2 is shown in Table 1A, that for Example 23 in Table 1B and that for Example 39 in Table 1C: […]

[5] = system: animal model of pulmonary hypertension; settings: cited from earlier work

IC50 [1]: 0.1 nM
SMILES: O=C(O)CCCCN(CCc1ccccc1OCc1ccc(CCc2ccccc2)cc1)C1CCCc2nc(C(=O)O)ccc21 (single isomer, unassigned; enantiomer 1) [Example 13, 5-{(4-Carboxybutyl)[2-(2-{[4-(2-phenylethyl)benzyl]oxy}phenyl)ethyl]amino}-5,6,7,8-tetrahydroquinoline-2-carboxylic acid (Enantiomer 1)]
minimal effective concentration [2]: 0.3 nM

Effect of combination with the NO donor DEA/NO on sGC stimulation ([3]; combination with DEA/NO): no synergistic effect
Stimulation (x-fold), haem-containing sGC, basal ([3]; test compound 0.01 μM): 13.7 ± 1.9 x-fold
Stimulation (x-fold), haem-containing sGC, +0.01 μM DEA/NO ([3]; test compound 0.01 μM): 20.2 ± 3.8 x-fold
Stimulation (x-fold), haem-containing sGC, +10 μM ODQ ([3]; test compound 0.01 μM): 63.9 ± 12.2 x-fold
Stimulation (x-fold), haem-containing sGC, basal ([3]; test compound 0.1 μM): 31.2 ± 3.5 x-fold
Stimulation (x-fold), haem-containing sGC, +0.01 μM DEA/NO ([3]; test compound 0.1 μM): 42.7 ± 7.2 x-fold
Stimulation (x-fold), haem-containing sGC, +10 μM ODQ ([3]; test compound 0.1 μM): 129.2 ± 18.9 x-fold
Stimulation (x-fold), haem-containing sGC, basal ([3]; test compound 1.0 μM): 40.2 ± 4.0 x-fold
Stimulation (x-fold), haem-containing sGC, +0.01 μM DEA/NO ([3]; test compound 1.0 μM): 56.5 ± 10.5 x-fold
Stimulation (x-fold), haem-containing sGC, +10 μM ODQ ([3]; test compound 1.0 μM): 172.2 ± 26.3 x-fold
Stimulation (x-fold), haem-containing sGC, basal ([3]; test compound 10 μM): 51.6 ± 6.4 x-fold
Stimulation (x-fold), haem-containing sGC, +0.01 μM DEA/NO ([3]; test compound 10 μM): 62.7 ± 11.0 x-fold
Stimulation (x-fold), haem-containing sGC, +10 μM ODQ ([3]; test compound 10 μM): 189.5 ± 28.2 x-fold
IC50 [1]: 3.6 nM
Stimulation (x-fold), haem-free sGC, basal ([4]; test compound 0.01 μM): 5.2 ± 0.6 x-fold
Stimulation (x-fold), haem-free sGC, basal ([4]; test compound 0.1 μM): 19.9 ± 2.2 x-fold
Stimulation (x-fold), haem-free sGC, basal ([4]; test compound 1.0 μM): 82.7 ± 10.5 x-fold
Stimulation (x-fold), haem-free sGC, basal ([4]; test compound 10 μM): 169.5 ± 23.6 x-fold
SMILES: Cc1ccc2oc(-c3ccc(COc4ccccc4CCN(CCCCC(=O)O)C4CCCc5nc(C(=O)O)ccc54)cc3)nc2c1 (single isomer, unassigned; enantiomer 2) [Example 2, (+)-5-{(4-Carboxybutyl)[2-(2-{[4-(5-methyl-1,3-benzoxazol-2-yl)benzyl]oxy}phenyl)ethyl]-amino}-5,6,7,8-tetrahydroquinoline-2-carboxylic acid (Enantiomer 2)]
minimal effective concentration [2]: 1.1 nM

SMILES: O=C(O)CCCCN(CCc1ccccc1OCc1ccc(CCc2ccccc2)cc1)Cc1ccc(C(=O)O)cc1 [BAY 58-2667, cinaciguat]
Duration of action ([5]; inhalative): did not have a sufficient duration of action
Pulmonary arterial pressure after inhalative administration ([5]; microparticles): dose-dependent selective reduction
